Measured values as given in ChEMBL document CHEMBL1201862, “PubChem BioAssay data set” (2004).
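Where inhibition never reached the appropriate level, the endpoint shown equals the highest concentration tested. Otherwise, values were interpolated linearly from a five-concentration, 48-hour dose response in 96-well plates. GI50: concentration for 50% inhibition of growth.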 Active and inactive are the calls of the source. Rule as the data show it: active = GI50 up to about 1.1 µM and inactive = higher.

Columns and labels:
Experiment in all cases: growth of human tumour cells (NCI), 48 h
[1] = system: A549
[2] = system: ACHN
[3] = system: BT-549
[4] = system: DU-145
[5] = system: HCT-116
[6] = system: HCT-15
[7] = system: HL-60
[8] = system: HOP-92
[9] = system: LOX IMVI
[10] = system: MDA-MB-231
[11] = system: NCI-H226
[12] = system: NCI-H522
[13] = system: OVCAR-3
[14] = system: OVCAR-4
[15] = system: RXF 393
[16] = system: SK-MEL-2
[17] = system: SK-OV-3
[18] = system: SR
[19] = system: T47D
[20] = system: U-251

Row | SMILES | GI50 [1] | GI50 [2] | GI50 [3] | GI50 [4] | GI50 [5] | GI50 [6] [µM] | GI50 [7] | GI50 [8] | GI50 [9] | GI50 [10] | GI50 [11] | GI50 [12] | GI50 [13] | GI50 [14] | GI50 [15] | GI50 [16] | GI50 [17] | GI50 [18] | GI50 [19] | GI50 [20]
1 | O=[N+]([O-])c1ccc(-[n+]2ccc3ccccc3c2)c([N+](=O)[O-])c1 | 16.4 µM (inactive) | 2.02 µM (inactive) | 4.83 µM (inactive) | 14.6 µM (inactive) | 2.35 µM (inactive) | 1.86 | 1.54 µM (inactive) | 2.48 µM (inactive) | 1.95 µM (inactive) | 3.62 µM (inactive) | 16.2 µM (inactive) | 2.1 µM (inactive) | 2.55 µM (inactive) | 1.56 µM (inactive) | 1.92 µM (inactive) | 11.1 µM (inactive) | 14.1 µM (inactive) | 3.42 µM (inactive) | 2.01 µM (inactive) | 5.68 µM (inactive)
2 | CCO/C=N/C1=C(C#N)SC2=N/C(=C\c3ccccc3)C(=O)N21 | > 100 µM (inactive) | > 100 µM (inactive) | > 100 µM (inactive) | > 100 µM (inactive) | > 100 µM (inactive) | > 100 | 23.9 µM (inactive) | > 100 µM (inactive) | > 100 µM (inactive) | > 100 µM (inactive) | 97.3 µM (inactive) | > 100 µM (inactive) | > 100 µM (inactive) | 57.9 µM (inactive) | > 100 µM (inactive) | > 100 µM (inactive) | > 100 µM (inactive) | 39.4 µM (inactive) | 86.9 µM (inactive) | > 100 µM (inactive)
3 | CC(=O)OC1(C)N=NC2(CCCCC2)O1 (stereo not given) | > 100 µM (inactive) | > 100 µM (inactive) | > 100 µM (inactive) | > 100 µM (inactive) | > 100 µM (inactive) | > 100 | 18.9 µM (inactive) | > 100 µM (inactive) | > 100 µM (inactive) | > 100 µM (inactive) | > 100 µM (inactive) | > 100 µM (inactive) | > 100 µM (inactive) | > 100 µM (inactive) | > 100 µM (inactive) | > 100 µM (inactive) | > 100 µM (inactive) | > 100 µM (inactive) | > 100 µM (inactive) | > 100 µM (inactive)
